Source: ChEMBL document CHEMBL3102738, “Synthesis and biological evaluation of nitric oxide-donating analogues of sulindac for prostate cancer treatment” (Bioorg Med Chem, 2014)

Tests used:
Type in all cases: functional
PC-3 [1] = assay: Cytotoxicity against human PC3 cells assessed as cell viability at 50 uM after 48 hrs by crystal violet method (reference value: 100.87 +/- 4.87%); details: PC-3, 48 h, read-out: Activity
PC-3 [2] = assay: Cytotoxicity against human PC3 cells assessed as cell viability at 50 uM after 24 hrs by crystal violet method (reference value: 99.09 +/- 9.87%); details: PC-3, 24 h, read-out: Activity
PC-3 [3] = assay: Cytotoxicity against human PC3 cells assessed as cell viability at 50 uM after 72 hrs by crystal violet method (reference value: 95.69 +/- 7.66%); details: PC-3, 72 h, read-out: Activity

CSc1ccc(/C=C2/C(C)=C(CC(=O)Oc3cccc(Oc4no[n+]([O-])c4S(=O)(=O)c4ccccc4)c3)c3cc(F)ccc32)cc1
viability at 50 µM (PC-3 [1]): 88.3%
viability at 50 µM (PC-3 [2]): 81.1%
viability at 50 µM (PC-3 [3]): 80.7%

CC1=C(CC(=O)OCCCCO[N+](=O)[O-])c2cc(F)ccc2/C1=C\c1ccc([S+](C)[O-])cc1 (stereo not given)
viability at 50 µM (PC-3 [1]): 35.5%
viability at 50 µM (PC-3 [2]): 58.8%
viability at 50 µM (PC-3 [3]): 24.5%

CC1=C(CC(=O)OCCCOc2no[n+]([O-])c2S(=O)(=O)c2ccccc2)c2cc(F)ccc2/C1=C\c1ccc([S+](C)[O-])cc1 (stereo not given)
viability at 50 µM (PC-3 [1]): 0%
viability at 50 µM (PC-3 [2]): 0%
viability at 50 µM (PC-3 [3]): 0%

CSc1ccc(/C=C2/C(C)=C(CC(=O)O)c3cc(F)ccc32)cc1 [SULINDAC SULFIDE]
viability at 50 µM (PC-3 [1]): 93.7%
viability at 50 µM (PC-3 [2]): 99.2%
viability at 50 µM (PC-3 [3]): 105%

CSc1ccc(/C=C2/C(C)=C(CC(=O)OC/C=C\COc3no[n+]([O-])c3S(=O)(=O)c3ccccc3)c3cc(F)ccc32)cc1
viability at 50 µM (PC-3 [1]): 31.4%
viability at 50 µM (PC-3 [2]): 30.6%
viability at 50 µM (PC-3 [3]): 20.6%

CSc1ccc(/C=C2/C(C)=C(CC(=O)OCCCCO[N+](=O)[O-])c3cc(F)ccc32)cc1
viability at 50 µM (PC-3 [1]): 28.4%
viability at 50 µM (PC-3 [2]): 49.4%
viability at 50 µM (PC-3 [3]): 17.1%

CC1=C(CC(=O)O)c2cc(F)ccc2/C1=C\c1ccc(S(C)(=O)=O)cc1 [EXISULIND]
viability at 50 µM (PC-3 [1]): 91%
viability at 50 µM (PC-3 [2]): 87.8%
viability at 50 µM (PC-3 [3]): 83.5%

CC1=C(CC(=O)OCCCCCCO[N+](=O)[O-])c2cc(F)ccc2/C1=C\c1ccc([S+](C)[O-])cc1 (stereo not given)
viability at 50 µM (PC-3 [1]): 72.7%
viability at 50 µM (PC-3 [2]): 105%
viability at 50 µM (PC-3 [3]): 88.1%

CC1=C(CC(=O)OCCCCOc2no[n+]([O-])c2S(=O)(=O)c2ccccc2)c2cc(F)ccc2/C1=C\c1ccc([S+](C)[O-])cc1 (stereo not given)
viability at 50 µM (PC-3 [1]): 21.8%
viability at 50 µM (PC-3 [2]): 32.3%
viability at 50 µM (PC-3 [3]): 16.5%

CC1=C(CC(=O)OCc2cccc(Oc3no[n+]([O-])c3S(=O)(=O)c3ccccc3)c2)c2cc(F)ccc2/C1=C\c1ccc([S+](C)[O-])cc1 (stereo not given)
viability at 50 µM (PC-3 [1]): 56.2%
viability at 50 µM (PC-3 [2]): 71.8%
viability at 50 µM (PC-3 [3]): 51.9%

CSc1ccc(/C=C2/C(C)=C(CC(=O)OCCCCO)c3cc(F)ccc32)cc1
viability at 50 µM (PC-3 [1]): 80.5%
viability at 50 µM (PC-3 [2]): 98.2%
viability at 50 µM (PC-3 [3]): 84%

CC1=C(CC(=O)OCCCCCCOc2no[n+]([O-])c2S(=O)(=O)c2ccccc2)c2cc(F)ccc2/C1=C\c1ccc(S(C)(=O)=O)cc1
viability at 50 µM (PC-3 [1]): 24.2%
viability at 50 µM (PC-3 [2]): 42.4%
viability at 50 µM (PC-3 [3]): 15.4%

CSc1ccc(/C=C2/C(C)=C(CC(=O)OCC#CCOc3no[n+]([O-])c3S(=O)(=O)c3ccccc3)c3cc(F)ccc32)cc1
viability at 50 µM (PC-3 [1]): 20.8%
viability at 50 µM (PC-3 [2]): 25.4%
viability at 50 µM (PC-3 [3]): 14.9%

CC1=C(CC(=O)Oc2cccc(Oc3no[n+]([O-])c3S(=O)(=O)c3ccccc3)c2)c2cc(F)ccc2/C1=C\c1ccc(S(C)(=O)=O)cc1
viability at 50 µM (PC-3 [1]): 0%
viability at 50 µM (PC-3 [2]): 0%
viability at 50 µM (PC-3 [3]): 0%

CSc1ccc(/C=C2/C(C)=C(CC(=O)OCc3cccc(Oc4no[n+]([O-])c4S(=O)(=O)c4ccccc4)c3)c3cc(F)ccc32)cc1
viability at 50 µM (PC-3 [1]): 79.7%
viability at 50 µM (PC-3 [2]): 102%
viability at 50 µM (PC-3 [3]): 82.7%

CC1=C(CC(=O)OCCO[N+](=O)[O-])c2cc(F)ccc2/C1=C\c1ccc([S+](C)[O-])cc1 (stereo not given)
viability at 50 µM (PC-3 [1]): 54.9%
viability at 50 µM (PC-3 [2]): 73%
viability at 50 µM (PC-3 [3]): 35.5%

CC1=C(CC(=O)OCCOc2no[n+]([O-])c2S(=O)(=O)c2ccccc2)c2cc(F)ccc2/C1=C\c1ccc(S(C)(=O)=O)cc1
viability at 50 µM (PC-3 [1]): 0%
viability at 50 µM (PC-3 [2]): 0%
viability at 50 µM (PC-3 [3]): 0%

CC1=C(CC(=O)Oc2cccc(Oc3no[n+]([O-])c3S(=O)(=O)c3ccccc3)c2)c2cc(F)ccc2/C1=C\c1ccc([S+](C)[O-])cc1 (stereo not given)
viability at 50 µM (PC-3 [1]): 67.7%
viability at 50 µM (PC-3 [2]): 74%
viability at 50 µM (PC-3 [3]): 66.3%

CSc1ccc(/C=C2/C(C)=C(CC(=O)OCCCCCCO[N+](=O)[O-])c3cc(F)ccc32)cc1
viability at 50 µM (PC-3 [1]): 85.1%
viability at 50 µM (PC-3 [2]): 92.4%
viability at 50 µM (PC-3 [3]): 104%

CC1=C(CC(=O)OC/C=C\COc2no[n+]([O-])c2S(=O)(=O)c2ccccc2)c2cc(F)ccc2/C1=C\c1ccc(S(C)(=O)=O)cc1
viability at 50 µM (PC-3 [1]): 0%
viability at 50 µM (PC-3 [2]): 0%
viability at 50 µM (PC-3 [3]): 0%

CSc1ccc(/C=C2/C(C)=C(CC(=O)/N=c3\c[n+](-c4ccccc4)[n-]o3)c3cc(F)ccc32)cc1
viability at 50 µM (PC-3 [1]): 90.8%
viability at 50 µM (PC-3 [2]): 89%
viability at 50 µM (PC-3 [3]): 77%

CSc1ccc(/C=C2/C(C)=C(CC(=O)OCC(CO[N+](=O)[O-])(CO[N+](=O)[O-])CO[N+](=O)[O-])c3cc(F)ccc32)cc1
viability at 50 µM (PC-3 [1]): 101%
viability at 50 µM (PC-3 [2]): 88.3%
viability at 50 µM (PC-3 [3]): 110%

CC1=C(CC(=O)OCCO[N+](=O)[O-])c2cc(F)ccc2/C1=C\c1ccc(S(C)(=O)=O)cc1
viability at 50 µM (PC-3 [1]): 96.2%
viability at 50 µM (PC-3 [2]): 84.4%
viability at 50 µM (PC-3 [3]): 84.4%

CSc1ccc(/C=C2/C(C)=C(CC(=O)OC(CO[N+](=O)[O-])CO[N+](=O)[O-])c3cc(F)ccc32)cc1
viability at 50 µM (PC-3 [1]): 92.3%
viability at 50 µM (PC-3 [2]): 91.2%
viability at 50 µM (PC-3 [3]): 93.5%

CC1=C(CC(=O)OCC#CCOc2no[n+]([O-])c2S(=O)(=O)c2ccccc2)c2cc(F)ccc2/C1=C\c1ccc(S(C)(=O)=O)cc1
viability at 50 µM (PC-3 [1]): 38%
viability at 50 µM (PC-3 [2]): 36.5%
viability at 50 µM (PC-3 [3]): 27.3%

CC1=C(CC(=O)OCCCCOc2no[n+]([O-])c2S(=O)(=O)c2ccccc2)c2cc(F)ccc2/C1=C\c1ccc(S(C)(=O)=O)cc1
viability at 50 µM (PC-3 [1]): 49.9%
viability at 50 µM (PC-3 [2]): 67.9%
viability at 50 µM (PC-3 [3]): 38.8%

CC1=C(CC(=O)OCCCCO[N+](=O)[O-])c2cc(F)ccc2/C1=C\c1ccc(S(C)(=O)=O)cc1
viability at 50 µM (PC-3 [1]): 52.9%
viability at 50 µM (PC-3 [2]): 68.7%
viability at 50 µM (PC-3 [3]): 54.7%

CC1=C(CC(=O)OCC#CCOc2no[n+]([O-])c2S(=O)(=O)c2ccccc2)c2cc(F)ccc2/C1=C\c1ccc([S+](C)[O-])cc1 (stereo not given)
viability at 50 µM (PC-3 [1]): 0%
viability at 50 µM (PC-3 [2]): 0%
viability at 50 µM (PC-3 [3]): 0%

CSc1ccc(/C=C2/C(C)=C(CC(=O)OCCOCCOc3no[n+]([O-])c3S(=O)(=O)c3ccccc3)c3cc(F)ccc32)cc1
viability at 50 µM (PC-3 [1]): 71%
viability at 50 µM (PC-3 [2]): 55.2%
viability at 50 µM (PC-3 [3]): 50.8%

CC1=C(CC(=O)OCC(CO[N+](=O)[O-])(CO[N+](=O)[O-])CO[N+](=O)[O-])c2cc(F)ccc2/C1=C\c1ccc(S(C)(=O)=O)cc1
viability at 50 µM (PC-3 [1]): 84.5%
viability at 50 µM (PC-3 [2]): 101%
viability at 50 µM (PC-3 [3]): 95.3%

CSc1ccc(/C=C2/C(C)=C(CC(=O)OCCO[N+](=O)[O-])c3cc(F)ccc32)cc1
viability at 50 µM (PC-3 [1]): 119%
viability at 50 µM (PC-3 [2]): 95.6%
viability at 50 µM (PC-3 [3]): 91.2%

CC1=C(CC(=O)OCCCOc2no[n+]([O-])c2S(=O)(=O)c2ccccc2)c2cc(F)ccc2/C1=C\c1ccc(S(C)(=O)=O)cc1
viability at 50 µM (PC-3 [1]): 0%
viability at 50 µM (PC-3 [2]): 0%
viability at 50 µM (PC-3 [3]): 0%

CC1=C(CC(=O)OC(CO[N+](=O)[O-])CO[N+](=O)[O-])c2cc(F)ccc2/C1=C\c1ccc(S(C)(=O)=O)cc1
viability at 50 µM (PC-3 [1]): 89%
viability at 50 µM (PC-3 [2]): 88%
viability at 50 µM (PC-3 [3]): 89.4%

CC1=C(CC(=O)OCCCCO)c2cc(F)ccc2/C1=C\c1ccc(S(C)(=O)=O)cc1
viability at 50 µM (PC-3 [1]): 81.5%
viability at 50 µM (PC-3 [2]): 87.4%
viability at 50 µM (PC-3 [3]): 86.6%

CC1=C(CC(=O)OCc2cccc(Oc3no[n+]([O-])c3S(=O)(=O)c3ccccc3)c2)c2cc(F)ccc2/C1=C\c1ccc(S(C)(=O)=O)cc1
viability at 50 µM (PC-3 [1]): 67.7%
viability at 50 µM (PC-3 [2]): 88.3%
viability at 50 µM (PC-3 [3]): 63.6%
